# From publication doi:10.1101/112086v2 (biorxiv, 2017)
# Numbering of substitutions follows the chain as printed.
# Tests used:
# [1] = biological target: T1, GST-Mps1 full length (Homo sapiens, UniProt P33981, C604W); assay: biochemical
# T1 sequence (P33981 1-857 C604W): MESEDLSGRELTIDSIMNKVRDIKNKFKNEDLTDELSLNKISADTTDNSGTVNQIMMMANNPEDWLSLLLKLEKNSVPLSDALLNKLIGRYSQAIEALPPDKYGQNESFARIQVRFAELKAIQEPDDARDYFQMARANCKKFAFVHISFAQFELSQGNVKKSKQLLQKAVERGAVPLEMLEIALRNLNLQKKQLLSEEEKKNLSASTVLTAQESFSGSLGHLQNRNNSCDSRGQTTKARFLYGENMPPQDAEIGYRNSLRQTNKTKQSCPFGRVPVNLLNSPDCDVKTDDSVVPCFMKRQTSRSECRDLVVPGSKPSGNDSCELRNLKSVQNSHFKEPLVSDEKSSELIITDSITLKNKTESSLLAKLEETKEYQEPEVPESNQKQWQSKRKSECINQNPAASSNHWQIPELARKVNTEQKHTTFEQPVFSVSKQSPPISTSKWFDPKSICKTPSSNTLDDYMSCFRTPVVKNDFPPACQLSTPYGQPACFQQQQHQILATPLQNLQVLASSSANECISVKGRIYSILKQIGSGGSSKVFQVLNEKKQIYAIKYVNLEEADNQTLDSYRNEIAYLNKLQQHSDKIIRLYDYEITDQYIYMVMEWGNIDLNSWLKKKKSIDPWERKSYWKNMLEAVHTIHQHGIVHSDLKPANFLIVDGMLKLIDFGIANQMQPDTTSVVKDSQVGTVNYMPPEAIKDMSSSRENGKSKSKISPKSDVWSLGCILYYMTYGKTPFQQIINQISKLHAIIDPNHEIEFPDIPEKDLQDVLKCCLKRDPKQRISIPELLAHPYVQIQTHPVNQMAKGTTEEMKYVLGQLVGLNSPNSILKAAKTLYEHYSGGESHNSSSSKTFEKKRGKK
# [2] = biological target: T2, Mps1 kinase domain (Homo sapiens, UniProt P33981, C604W); assay: microscale thermophoresis, DY-547P1 labelled protein; assay type: binding
# T2 sequence (P33981 519-808 C604W): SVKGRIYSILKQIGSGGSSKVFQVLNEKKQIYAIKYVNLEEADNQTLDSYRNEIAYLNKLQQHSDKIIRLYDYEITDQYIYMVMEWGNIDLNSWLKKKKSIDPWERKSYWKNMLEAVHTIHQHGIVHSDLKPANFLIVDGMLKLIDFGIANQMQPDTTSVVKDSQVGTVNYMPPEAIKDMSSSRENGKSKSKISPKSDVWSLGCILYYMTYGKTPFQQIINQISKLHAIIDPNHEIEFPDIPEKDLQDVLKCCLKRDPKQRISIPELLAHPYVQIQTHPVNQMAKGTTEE
# [3] = biological target: T3, Mps1 kinase domain (Homo sapiens, UniProt P33981); assay: as above; assay type: binding
# T3 sequence (P33981 519-808): T2 sequence (P33981 519-808 C604W) with W86C
# [4] = biological target: T4, GST-Mps1 full length (Homo sapiens, UniProt P33981, C604Y); assay: biochemical
# T4 sequence (P33981 1-857 C604Y): T1 sequence (P33981 1-857 C604W) with W604Y
# [5] = biological target: T5, Mps1 kinase domain (Homo sapiens, UniProt P33981, C604Y); assay: microscale thermophoresis, DY-547P1 labelled protein; assay type: binding
# T5 sequence (P33981 519-808 C604Y): T2 sequence (P33981 519-808 C604W) with W86Y
# [6] = biological target: T6, GST-Mps1 full length (Homo sapiens, UniProt P33981); assay: biochemical
# T6 sequence (P33981 1-857): T1 sequence (P33981 1-857 C604W) with W604C
smiles,measurement,setting,value
"CCc1cccc(CC)c1NC(=O)c1nn(C)c2c1CCc1cnc(Nc3ccc(N4CCN(C)CC4)cc3OC)nc1-2 [Cpd-5, N-(2,6-diethylphenyl)-8-((2-methoxy-4-(4-methylpiperazin-1-yl)phenyl)amino)-1-methyl-4,5-dihydro-1H-pyrazolo[4,3-h]quinazoline-3-carboxamide]",IC50,[1],0.019 ± 0.001 µM
same,Kd,[2],0.349 ± 0.081 µM
same,Kd,[3],0.0016 ± 0.0002 µM
same,IC50,[4],0.17 ± 0.03 µM
same,Kd,[5],0.471 ± 0.05 µM
same,IC50,[6],0.0092 ± 0.0016 µM
